Test results from ChEMBL document CHEMBL5523716, “Discovery of novel EGFR-PROTACs capable of degradation of multiple EGFR-mutated proteins” (Eur J Med Chem, 2024).
The source made the active and inactive calls. The rule behind the calls is not given here.

Columns and labels:
[1] = MRT (0 to t) in SPF ICR mouse at 5 mg/kg,ip measured upto 24 hrs by LC-MS/MS analysis; type: ADME, organism-based; settings: in vivo
[2] = system: NCI-H1975; experiment: Antiproliferative activity against human NCI-H1975 cells harboring EGFR L858R/T790M double mutant assessed as inhibition of cell growth incubated for 48 to 72 hrs by CCK-8 assay; type: functional, cell-based
[3] = system: von Hippel-Lindau disease tumor suppressor/Epidermal growth factor receptor (Homo sapiens), P00533+P40337 [L858R,T790M,C797S]; experiment: PROTAC activity at VHL/EGFR L858R/T790M/C797S mutant in human H1975-TM cells assessed as downregulation of EGFR phosphorylation incubated for 48 hrs by Western blot analysis; type: cell-based
[4] = system: von Hippel-Lindau disease tumor suppressor/Epidermal growth factor receptor (Homo sapiens), P00533+P40337 [UNDEFINED MUTATION]; experiment: PROTAC activity at VHL/EGFR Del19 mutant in human HCC827 cells assessed as induction of EGFR degradation at 100 nM preincubated with MG-132 for 6 hrs followed by compound treatment for 48 hrs by Western blot analysis; type: cell-based
[5] = system: von Hippel-Lindau disease tumor suppressor/Epidermal growth factor receptor (Homo sapiens), P00533+P40337 [L858R,T790M,C797S]; experiment: PROTAC activity at VHL/EGFR L858R/T790M/C797S mutant in human H1975-TM cells assessed as downregulation of AKT phosphorylation incubated for 48 hrs by Western blot analysis; type: cell-based
[6] = molecular target: von Hippel-Lindau disease tumor suppressor/Epidermal growth factor receptor (Homo sapiens, UniProt P00533+P40337, T790M/L858R); experiment: PROTAC activity at VHL/EGFR L858R/T790M mutant in human NCI-H1975 cells assessed as induction of EGFR degradation incubated for 72 hrs by Western blot analysis; type: cell-based
[7] = system: von Hippel-Lindau disease tumor suppressor/Epidermal growth factor receptor (Homo sapiens), P00533+P40337 [L858R,T790M,C797S]; experiment: PROTAC activity at VHL/EGFR L858R/T790M/C797S mutant in human H1975-TM cells assessed as induction of EGFR degradation at 100 nM preincubated with MG-132 for 6 hrs followed by compound treatment for 48 hrs by Western blot analysis; type: cell-based
[8] = system: H1975-TM; experiment: Antitumor activity against human H1975-TM cells xenografted in BALB/c mouse assessed as downregulation of AKT phosphorylation in tumor at 5 to 20 mg/kg,ip once daily for 14 days by Western blot analysis; type: functional, organism-based; settings: dose 5-20 mg/kg, time 14.0 day
[9] = Metabolic stability in human liver microsomes assessed as intrinsic clearance at 1 uM incubated upto 60 mins in presence of NADPH by LC-MS/MS analysis; type: ADME, Microsome; settings: read-out: CLH
[10] = MRT (0 to t) in SPF ICR mouse at 2 mg/kg,iv measured upto 24 hrs by LC-MS/MS analysis; type: ADME, organism-based; settings: in vivo
[11] = AUC (0 to t) in SPF ICR mouse at 5 mg/kg,ip measured upto 24 hrs by LC-MS/MS analysis; type: ADME, organism-based; settings: in vivo
[12] = Toxicity in BALB/c mouse xenografted with human H1975-TM cells assessed as change in body weight at 5 to 20 mg/kg,ip once daily for 14 days; type: organism-based; settings: in vivo, 336 h, dose 5-20 mg/kg, time 14 day
[13] = Metabolic stability in human liver microsomes assessed as half-life at 1 uM incubated upto 60 mins in presence of NADPH by LC-MS/MS analysis; type: ADME, Microsome
[14] = system: von Hippel-Lindau disease tumor suppressor/Epidermal growth factor receptor (Homo sapiens), P00533+P40337 [L858R,T790M]; experiment: PROTAC activity at VHL/EGFR L858R/T790M mutant in human NCI-H1975 cells assessed as downregulation of EGFR phosphorylation incubated for 72 hrs by Western blot analysis; type: cell-based
[15] = AUC (0 to infinity) in SPF ICR mouse at 2 mg/kg,iv measured upto 24 hrs by LC-MS/MS analysis; type: ADME, organism-based; settings: in vivo
[16] = Metabolic stability in dog liver microsomes assessed as intrinsic clearance at 1 uM incubated upto 60 mins in presence of NADPH by LC-MS/MS analysis; type: ADME, Canis lupus familiaris, Microsome; settings: read-out: CLH

CCN(CC)C/C=C/C(=O)Nc1cc2c(Nc3ccc(F)c(Cl)c3)ncnc2cc1OCc1cn(CCCCCCCC(=O)N[C@H](C(=O)N2C[C@H](O)C[C@H]2C(=O)N[C@H](C)c2ccc(-c3scnc3C)cc2)C(C)(C)C)nn1
MRT last at 24 h [1]: 172 min | IC50 [2]: 490 nM | Activity [3]: Dose-Dependent Effect | Activity [4]: inactive | Activity [5]: Dose-Dependent Effect | DC50 [6]: 250 nM | Activity [7]: inactive | Activity [8]: Active | microsomal CLint at 1 µM [9]: 84 µL/min/mg | MRT last at 24 h [10]: 17.4 min | AUC(0-t) at 24 h [11]: 2820 ng·h/mL | Activity [12]: Non-Toxic | half-life at 1 µM [13]: 16.5 min | Activity [14]: Dose-Dependent Effect | AUC(0-inf) [15]: 2360 ng·h/mL | microsomal CLint at 1 µM [16]: 17.8 µL/min/mg
